Laboratory results as given in paper PMC8216263 (Pharmaceutical Biology, 2021).

Legend:
OAT3 = molecular target: T1, OAT3 (Homo sapiens, UniProt Q8TCC7); assay: Inhibition of OAT3-mediated 3H-ES uptake in S2-OAT3 cells; format: cell-based; details: GA 50–5000 μg/L, PCA 10–1000 μg/L
T1 construct: host or cells: S2 (second portion of proximal tubule) cells
T1 sequence (Q8TCC7 1-542): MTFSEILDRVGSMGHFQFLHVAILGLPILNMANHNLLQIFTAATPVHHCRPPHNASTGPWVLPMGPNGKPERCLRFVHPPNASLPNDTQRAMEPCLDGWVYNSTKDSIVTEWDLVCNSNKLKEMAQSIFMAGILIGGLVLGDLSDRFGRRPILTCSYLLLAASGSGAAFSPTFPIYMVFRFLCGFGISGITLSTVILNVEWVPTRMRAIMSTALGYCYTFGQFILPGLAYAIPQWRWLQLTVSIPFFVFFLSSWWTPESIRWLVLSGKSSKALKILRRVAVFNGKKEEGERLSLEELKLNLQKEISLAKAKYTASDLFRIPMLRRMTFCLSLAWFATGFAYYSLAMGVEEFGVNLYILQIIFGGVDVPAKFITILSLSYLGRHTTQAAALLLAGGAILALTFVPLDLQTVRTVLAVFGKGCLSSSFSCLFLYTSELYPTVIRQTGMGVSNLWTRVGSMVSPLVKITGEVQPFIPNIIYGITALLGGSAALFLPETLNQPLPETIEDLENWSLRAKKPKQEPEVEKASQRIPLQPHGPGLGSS
Description: Cells were cultured in DMEM supplemented with 10% FBS, 100 units/mL penicillin and 100 units/mL streptomycin. […] Cell culture flasks, 24-well cell culture plates, and transwell polycarbonate inserts (12 mm diameter, 0.4 μm pore size) were purchased from Corning Co-star Corp. (Bedford, MA).
The MDCK-OAT1, S2-OAT3, S2-OCT2 and HEK293-OATP1B1 cell lines were utilized in this study. […] Briefly, S2-OAT3, S2-OCT2 and S2-mock cells were trypsinized and uniformly suspended in the culture medium’s designated volume to provide a density of 2.0 × 10^5 cells/mL. A 1.0-mL aliquot of the cell suspension was added into each well of 24-well insert plates. HEK293-OATP1B1, MDCK-OAT1 and their mock cells were seeded in 24-well plates at a density of 1.5 × 10^5 cells/well. […] Three washes terminated the experiment with ice-cold DPBS buffer after removing the incubation buffer. Cells were lysed with 400 μL of […] sodium hydroxide solution. The cell lysate and 3.0 mL of aquasol-2 scintillation fluid were put into a scintillation flask. […] The final concentration of DMSO in the assay was less than 0.1%. All experiments were performed in triplicate.

OATP1B1 = molecular target: T2, OATP1B1 (Homo sapiens, UniProt Q9Y6L6); assay: Inhibition of OATP1B1-mediated 3H-ES uptake in HEK293-OATP1B1 cells; format: cell-based; details: GA 50–5000 μg/L, PCA 10–1000 μg/L
T2 sequence (Q9Y6L6 1-691): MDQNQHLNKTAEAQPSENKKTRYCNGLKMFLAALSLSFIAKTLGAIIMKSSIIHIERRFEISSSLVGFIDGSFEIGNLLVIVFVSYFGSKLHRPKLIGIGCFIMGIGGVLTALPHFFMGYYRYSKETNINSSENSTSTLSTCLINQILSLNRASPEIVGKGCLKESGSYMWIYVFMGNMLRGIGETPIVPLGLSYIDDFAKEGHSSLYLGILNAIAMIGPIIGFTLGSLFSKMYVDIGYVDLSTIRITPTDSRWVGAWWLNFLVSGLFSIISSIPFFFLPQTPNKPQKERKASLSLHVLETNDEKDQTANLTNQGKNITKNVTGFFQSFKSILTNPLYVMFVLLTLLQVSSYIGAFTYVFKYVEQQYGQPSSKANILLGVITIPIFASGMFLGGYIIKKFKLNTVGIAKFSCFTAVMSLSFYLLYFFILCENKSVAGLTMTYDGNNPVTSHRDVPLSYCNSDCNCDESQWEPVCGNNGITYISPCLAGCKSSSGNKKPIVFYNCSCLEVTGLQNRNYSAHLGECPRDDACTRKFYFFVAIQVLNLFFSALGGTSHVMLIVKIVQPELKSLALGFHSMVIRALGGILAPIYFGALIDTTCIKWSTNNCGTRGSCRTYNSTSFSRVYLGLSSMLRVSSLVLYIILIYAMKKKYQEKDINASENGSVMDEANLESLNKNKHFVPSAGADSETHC
From the text: The human multidrug resistance protein (MDR)1-transfected Madin–Darby Canine Kidney (MDCK) cells, human breast cancer resistance protein (BCRP)-transfected MDCK cells, human organic anion transporter (OAT)1-transfected MDCK cells, OAT3-transfected second portion of proximal tubule (S2) cells, human organic cation transporter (OCT)2-transfected S2 cells, human organic anion transporting polypeptide (OATP)1B1-transfected human embryonic kidney 293 (HEK293) cells and their MOCK cells were kindly provided by Japan Fuji Biomedical Co., Ltd. (Osaka, Japan). Cells were cultured in DMEM supplemented with 10% FBS, 100 units/mL penicillin and 100 […]. All cells were incubated in a humidified atmosphere of 95% air and 5% CO2 at 37 °C. A solution of 0.25% trypsin-EDTA was used to detach the cells from flasks. Cell culture flasks, 24-well cell culture plates, and transwell polycarbonate inserts (12 mm diameter, 0.4 μm pore size) were purchased from Corning Co-star Corp. (Bedford, MA).
Concentration-dependent inhibitions were conducted to study GA and PCA’s inhibitory effects on uptake transporters OAT1, OAT3, OCT2 and OATP1B1. The MDCK-OAT1, S2-OAT3, S2-OCT2 and HEK293-OATP1B1 cell lines were utilized in this study. […] The radioactive intensity was measured using a Tri-Carb 2910TR scintillator (PerkinElmer, Waltham, MA). […]

## O=C(O)c1ccc(O)c(O)c1 [PCA, protocatechuic acid]
OAT3
  inhibitory effect on OAT3: no significant inhibitory effect
OATP1B1
  inhibitory effect on OATP1B1-mediated uptake of 3H-ES: no statistical differences
